Results from patent US20240130988A1, “Use of stilbene compounds in the preparation of anti-tumor drugs” (Guangzhou AnHao Pharmaceutical Technology CO., LTD., priority 2022, published 2024).
Values belong to the compound of their own block, whether it stands above or below them.

Experiments:
[1] = system: human lung cancer 95D and human liver cancer Bel7404; test: In vivo vascular necrosis of tumors, PCNA immunohistochemistry; parameters: species or system nude mice; details: 400 mg/kg
[2] = system: human liver cancer QGY7703; test: Compound 6 combined with T cells, human liver cancer QGY7703 model in NOG mice; assay type: in vivo; details: 8 × 10^6 T cells sc, compound 6 200 mg/kg ip, or both
Procedure: Experimental method: QGY7703 tumor cells were washed twice with PBS, and then resuspended with PBS:Matrix (1:1 mixture by volume). The cell concentration was adjusted to 2.5×10^6/mL, and subcutaneously inoculated to the right armpit of experimental animals at 200 μL/mouse, i.e. 5×10^5 cells/mouse. When the tumor grew to about 50 mm^3, the mice were divided into groups for administration.
T cell culture and harvest: PBMCs of donors were activated and expanded in vitro according to the standard operating procedures for T cell culture. The cells in logarithmic growth phase were harvested and suspended in the medium at a moderate dose (2×10^7/mL) for future use.
T cells were administrated by subcutaneous injection, and the injection site was the same as the inoculation site of tumor cells.
The general conditions, body weight, tumor volume, and tumor weight of mice were recorded every 3 days. Based on the status of the tumor, whether EAL was further injected was decided.
(§1) The effect of combined medicaments was evaluated based on the Q value calculated by Jin's formula: […]
(§2) Ea+b represents the tumor inhibitory rate of the combined medicaments, while Ea and Eb represent the tumor inhibitory rates of medicament A and medicament B, respectively.

B16 mouse melanoma = test: Lung metastasis model of B16 mouse melanoma; assay type: in vivo, C57BL/6 mice
Procedure: Under sterile conditions, […] mouse melanoma cells in logarithmic growth period were cultured, and then prepared as 2.8×10^5/mL of cell suspension, which was inoculated into the tail vein of C57BL/6 mice at 0.2 mL/mouse. Compound 6 was administered to the mice on the next day. Three weeks later, each animal was sacrificed, and the lungs of mice in each group were dissected. The number of metastatic colonies in the lungs of mice was detected and counted, and the average number of tumor colonies in each group was used to calculate the tumor inhibitory rate according to the formula: Tumor inhibitory rate %=[(The average number of colonies in the control group−the average number of colonies in the treatment group)/The average number of colonies in the control group]×100%, The results are shown in Table 16.

human lung cancer A549 = test: Compound 8 combined with carboplatin, human lung cancer A549 xenograft in nude mice; assay type: in vivo; details: ip: carboplatin 10 mg/kg, compound 8 200 mg/kg, combination 10 + 200
Excerpt: Experimental method: The model of human lung cancer A549 transplant tumor in nude mice was established by subcutaneously inoculating human lung cancer A549 cell lines into the armpits of nude mice. Cells were inoculated in an amount of 1×10^6, and after formation of the transplanted tumors by inoculation, the cells were passed 3 generations in nude mice before use. The vigorous growth of tumor tissue was cut into approximate 1.5 mm^3, and homogenized under sterile conditions, to prepare 1×10^7/mL of cell suspension. 0.1 mL of cell suspension was subcutaneously inoculated into the right armpit of nude mice. For transplanted tumors in nude mice, the diameter was measured with vernier caliper. After the tumor grew to 100 mm^3, the animals were randomly divided into groups, with 6 mice in each group. Using the method of measuring tumor diameter, the anti-tumor effect of test compound was dynamically Observed. Compound 8 was administered at 200 mg/kg by intraperitoneal injection, once every other day, for three weeks; carboplatin was administered at 10 mg/kg by intraperitoneal injection, once every other day, for three weeks. The measurement frequency of tumor diameter was once every three days. The dosage by volume was 0.1 mL/20 g. The mice in the negative control group were given an equal amount of physiological saline by intravenous injection. The effect of combined medicaments was evaluated based on the Q value calculated by Jin's formula: […]
Ea+b represents the tumor inhibitory rate of the combined medicaments, while Ea and Eb represent the tumor inhibitory rates of medicament A and medicament B, respectively. For example, the Q value of 0.85-1.15 means additive action (+), while the Q value of >1.15 means synergistic action (++).

[3] = system: Lewis non-small cell lung cancer; test: Compound 11 combined with PD-L1, Lewis non-small cell lung cancer model in mice; assay type: in vivo, C57BL/6 mice; details: ip: PD-L1 10 mg/kg, compound 11 200 mg/kg, combination 10 + 200
Excerpt: Experimental method: The model of transplant tumor in C57BL/6 mice was established by subcutaneously inoculating Lewis non-small cell lung cancer cell lines into the armpits of C57BL/6 mice. Cells were inoculated in an amount of 1×10^6, and after formation of the transplanted tumors by inoculation, the cells were passed 3 generations in C57BL/6 mice before use. The vigorous growth of tumor tissue was cut into approximate 1.5 mm^3, and homogenized under sterile conditions, to prepare 1×10^7/mL of cell suspension. 0.1 mL of cell suspension was subcutaneously inoculated into the right armpit of C57BL/6 mice. For transplanted tumors in C57BL/6 mice, the diameter was measured with vernier caliper. After the tumor grew to 100 mm^3, the animals were randomly divided into groups, with 6 mice in each group. […] The measurement frequency of tumor diameter was once every three days. The dosage by volume was 0.1 mL/20 g. The mice in the negative control group were given an equal amount of physiological saline by intravenous injection.
as §1, §2

Terminal weight [2]: 24.5 ± 0.9 g
Animal weight (g) End (B16 mouse melanoma; 40 mg/kg iv × 10qod): 20.2/25.4 g
Animal weight (g) End (B16 mouse melanoma; 60 mg/kg iv × 10qod): 20.1/25.7 g
Animal weight (g) End (B16 mouse melanoma; 80 mg/kg iv × 10qod): 19.9/25.7 g
Animal weight (g) End (B16 mouse melanoma; 120 mg/kg iv × 10qod): 20.2/25.6 g
SMILES: COc1ccc(/C=C(/C(=O)O)c2cc(OC)c(OC)c(OC)c2)cc1O [Compound 6, (E)-3-(3-hydroxy-4-methoxyphenyl)-2-(3,4,5-trimethoxyphenyl)acrylic acid]
Damage to the blood vessels of tumors (PCNA immunohistochemistry) ([1]; 4 h after oral administration): only some vascular endothelial cells proliferated in the tumor tissues
Damage to the blood vessels of tumors (PCNA immunohistochemistry) ([1]; 24 h after oral administration): massive blood flow blockade and necrosis of tumor tissues
RTV(d 32) [2]: 19.62 ± 3.17
Tumor inhibitory rate % [2]: 39.61%
Metastasis inhibitory rate % (B16 mouse melanoma; 40 mg/kg iv × 10qod): 24.11%
Number of lung tumor colonies χ ± SD (B16 mouse melanoma; 40 mg/kg iv × 10qod): 40.1 ± 9.0
Metastasis inhibitory rate % (B16 mouse melanoma; 60 mg/kg iv × 10qod): 29.03%
Number of lung tumor colonies χ ± SD (B16 mouse melanoma; 60 mg/kg iv × 10qod): 37.5 ± 11.7
Metastasis inhibitory rate % (B16 mouse melanoma; 80 mg/kg iv × 10qod): 35.84%
Number of lung tumor colonies χ ± SD (B16 mouse melanoma; 80 mg/kg iv × 10qod): 33.9 ± 10.8
Metastasis inhibitory rate % (B16 mouse melanoma; 120 mg/kg iv × 10qod): 34.14%
Number of lung tumor colonies χ ± SD (B16 mouse melanoma; 120 mg/kg iv × 10qod): 34.8 ± 13.4
Inhibition of metastasis of B16 mouse melanoma, in words (B16 mouse melanoma; 40-120 mg/kg iv × 10qod): inhibit the metastasis of B16 mouse melanoma in a dose-dependent manner

SMILES: COc1cc(/C(=C\c2cc(O)c(OC)c(F)c2)C(=O)O)cc(OC)c1OC [Compound 8, (E)-3-(5-fluoro-3-hydroxy-4-methoxyphenyl)-2-(3,4,5-trimethoxyphenyl)acrylic acid]
RTV (d 21) (human lung cancer A549): 4.85 ± 1.37
Tumor inhibitory rate % (human lung cancer A549): 62.32%

Terminal weight [3]: 23.1 ± 0.9 g
SMILES: COc1cc(/C(=C\c2cc(O)c(OC)c(O)c2)C(=O)O)cc(OC)c1OC [Compound 11, (E)-3-(3,5-dihydroxy-4-methoxyphenyl)-2-(3,4,5-trimethoxyphenyl)acrylic acid]
RTV (d 18) [3]: 7.62 ± 2.28
Tumor inhibitory rate % [3]: 48.76%
